From patent US9123099B2, “Systems with workstations and circuits for generating images of global injury” (Wake Forest University Health Sciences, priority 2004, dated 2015)

Tests used:
[1] = test system: left ventricle myocardium; experiment: Cross-sectional delayed enhancement MRI/CMR study of gadolinium contrast uptake, voxel intensity and auto-correlation; type: in vivo, human
From the text: In particular embodiments of the present invention, a patient may be taken to the MRI suite where he/she will be placed supine on the MRI table and ECG leads and respiratory gating bellows applied. MRI scans may be performed on, for example, a 1.5 Tesla GE CVi scanner with a phased array surface coil applied around the chest to optimize signal to noise ratio, or another MRI scanner. Images may be acquired using a fast gradient echo technique, with the repetition time (TR) and echo time (TE) based on the R-R interval of the subject. Multislice coronal, gradient echo sequences may be used to obtain scout images of the chest and locate the left ventricle. Subjects may be injected intravenously with a gadolinium contrast agent (0.2 mmole/kg Gadoteridol (Prohance, Bracco Diagnostics, Princeton, N.J.)). The time of this injection may be recorded.
However, this method may not be as well suited for a process that causes necrosis to susceptible tissue throughout the LV myocardium in a randomly distributed pattern (e.g. a global injury). To overcome this limitation, voxels, and in some embodiments all the voxels, within three short axis slice positions (apex, middle, and base) within the LV may be sampled and the intensity and x, y, and z coordinates of each voxel identified in 3-dimensional space (FIG. 6). FIG. 6 is a 3-Dimensional depiction of 3 short axis (basal, middle, and apical) planes of the left ventricle. […] During analysis, the image intensity of each voxel and the x, y, and z coordinates are recorded. […]
Correction for variations in the intensity of voxels in the images may also be identified by determining the intensity of voxels within a target region, typically, a 1 cm diameter circular ROI placed outside the heart. For each apical, middle, and basal slice, the number of pixels at a given intensity may be determined and the intensity from the ROI external to the heart subtracted from the pixels. In certain embodiments, for each slice, the mean intensity of all voxels and the peak voxel intensity in the highest 40% of the distribution may be determined (FIG. 6). […]

[2] = cited from earlier work

In the case of `COc1cccc2c1C(=O)c1c(O)c3c(c(O)c1C2=O)C[C@@](O)(C(=O)CO)C[C@@H]3O[C@H]1C[C@H](N)[C@H](O)[C@H](C)O1` [doxorubicin], the “mean intensity of contrast uptake in voxel histogram” value ([1]; doxorubicin cardiomyopathy patient, middle short axis view, 20 minutes after contrast, low in healthy patient, highest in infarct patient) is reported as “intermediate”, the “percentage of voxel intensities in aggregate histograms vs normal age matched controls” value ([1]; patients with cardiomyopathy due to doxorubicin, about 20 minutes after contrast) is reported as “increased percentage of intensities” and the “pattern of contrast uptake within the LV (serial auto-correlation)” value ([1]; patients with cardiomyopathy secondary to doxorubicin, p<0.001 vs myocardial infarction) is reported as “random”. For the same compound, the “patients experiencing toxicity who do so after receipt of approximately 100 mg/m^2” value ([2]; approximately 100 mg/m^2, usually at T=1 month) was “about 85%”, the “dose above which irreversible cardiomyopathy with serious congestive heart failure is a significant risk” value ([2]; patients, cumulative dose) was 500-550 mg/m^2 and the “dose that precipitates congestive heart failure” value ([2]; report of 1487 patients studied over a seven year period) was 30-880 mg/m^2.
